Here are results for twelve compounds from patent US5696151A, “Compounds useful for the inhibition of the replication of HIV-1 and HIV-1 mutants” (priority 1995, dated 1997).

Values after ≈ are worked out from the molar mass of the structure shown. Where only a bound is given, the exact number is not on record here.

What all share (type): cell-based
The subject of series [1] is HIV-1/100-Ile. Nature of the series: Inhibition of HIV-1 induced syncytium formation in CEM cells, RT mutant 100-Ile. The settings on record: Human immunodeficiency virus 1, CCRF-CEM, 96 h, Table 2B, day 4, averages of 2 to 3 independent experiments, read-out: Antiviral Activity of Comparative Compounds EC50, 100-Ile. An excerpt: (§1) CEM cells were obtained from the American Tissue Cell Culture Collection (Rockville, Md.). HIV-1(IIIB) was originally obtained from the culture supernatant of persistently HIV-1-infected H9 cells and was provided by R. C. Gallo and M. Popovic (National Cancer Institute, National Institutes of Health, Bethesda, Md.). […] 67: 5353-5359 (1993); HIV-1/Lys-138 ("Lys-138") was selected for resistance against TSAO-m^3T as described in Balzarini et al, Virology 192: 246-253 (1993) and Balzarini et al, Proc. Nat. Acad. Sci. USA 90: 6952-6956 (1993); HIV-1/181-Cys ("181-Cys") was selected for resistance against pyridinone L-697,661 as described in Balzarini et al, Virology 192: 246-253 (1993); and HIV-1/188-His ("188-His") was selected for resistance against HEPT as described in Balzarini et al, Mol. Pharmocol. 44: 694-701 (1993). 188-His was then further converted to HIV-1/188-Leu "188-Leu") upon further passage in cell culture in the absence of the HEPT.
(§2) CEM cells were suspended at ≈300,000 cells per ml of culture medium and infected with approximately 100 CCID50 (CCID50 being the 50% cell culture infective dose) of HIV-1(IIIB) or one of the HIV-1 RT mutant strains described above. Then 100 μl of the infected cell suspensions was added to 200 μl microtiter plate wells containing 100 μl of appropriate serial (5-fold) dilutions of the test compounds. The inhibitory effect of the test compounds on HIV-1 induced syncytium formation in CEM cells was examined microscopically on day 4 post infection.

Series [2] relates to HIV-1(IIIB). The series is described as follows: Inhibition of HIV-1 induced syncytium formation in CEM cells, wild type. The settings on record: Human immunodeficiency virus 1, IIIB, CCRF-CEM, 96 h, Table 2B, WT = HIV-1(IIIB), day 4, averages of 2 to 3 independent experiments, read-out: Antiviral Activity of Comparative Compounds EC50, WT.
Excerpt: as §1, §2

A short description of series [3]: in vitro. The settings on record: human, cem cells, CC50 (50% cytostatic concentration), Table 2B; CEM cell proliferation; averages of 2 to 3 independent experiments.
Excerpt: as §1
^b 50% cytostatic concentration (i.e., compound concentration require
to inhibit CEM cell proliferation by 50%)

The test system of series [4] is HIV-1/106-Ala. Nature of the series: Inhibition of HIV-1 induced syncytium formation in CEM cells, RT mutant 106-Ala. The settings on record: Human immunodeficiency virus 1, CCRF-CEM, 96 h, Table 2B, day 4, averages of 2 to 3 independent experiments, read-out: Antiviral Activity of Comparative Compounds EC50, 106-Ala.
Excerpt: as §1, §2

In series [5] the test system is HIV-1/181-Cys. The series is described as follows: Inhibition of HIV-1 induced syncytium formation in CEM cells, RT mutant 181-Cys. The settings on record: Human immunodeficiency virus 1, CCRF-CEM, 96 h, Table 2B, day 4, averages of 2 to 3 independent experiments, read-out: Antiviral Activity of Comparative Compounds EC50, 181-Cys.
Excerpt: as §1, §2

The test system of series [6] is HIV-1/Lys-138. The series is described as follows: Inhibition of HIV-1 induced syncytium formation in CEM cells, RT mutant 138-Lys. The settings on record: Human immunodeficiency virus 1, CCRF-CEM, 96 h, Table 2B, day 4, averages of 2 to 3 independent experiments, read-out: Antiviral Activity of Comparative Compounds EC50, 138-Lys.
Excerpt: as §1, §2

Turning to `CC(C)OC(=O)c1cc(NC(=O)c2ccccc2)ccc1Cl` [Compound 62], the EC50 in series [1] is 3.5 µg/mL (≈ 11 µM); in series [2], 0.4 µg/mL (≈ 1.26 µM); in series [4] it was 5 µg/mL (≈ 15.7 µM); in series [5], 5.5 µg/mL (≈ 17.3 µM); in series [6], 5 µg/mL (≈ 15.7 µM). The CC50 in series [3] came to 6.2 µg/mL (≈ 19.5 µM).

With `CC(C)OC(=O)c1cc(NC(=S)c2ccccc2)ccc1Cl` [Compound 63], the EC50 in series [1] amounted to 4.5 µg/mL (≈ 13.5 µM); in series [2], 0.05 µg/mL (≈ 0.15 µM); in series [4], 5 µg/mL (≈ 15 µM); in series [5], 5 µg/mL (≈ 15 µM); in series [6], 2.2 µg/mL (≈ 6.59 µM). This compound showed a CC50 in series [3] of 4.3 µg/mL (≈ 12.9 µM).

Regarding `O=C(OC1CCCCC1)c1cc(NC(=S)c2ccccc2F)ccc1Cl` [Compound 65], the EC50 in series [1] worked out at 0.3 µg/mL (≈ 0.766 µM); in series [2], 0.04 µg/mL (≈ 0.102 µM); in series [4], 0.26 µg/mL (≈ 0.663 µM); in series [5], 0.25 µg/mL (≈ 0.638 µM); in series [6] it was 0.09 µg/mL (≈ 0.23 µM). Further, in series [3], the CC50 was 19 µg/mL (≈ 48.5 µM).

For the compound `CCC(CC)OC(=O)c1cc(NC(=O)c2ccccc2N)ccc1Cl` [Compound 66], the EC50 is more than 10 µg/mL in series [1]; 0.6 µg/mL (≈ 1.66 µM) in series [2]; 9 µg/mL (≈ 24.9 µM) in series [4]; not below 10 µg/mL in series [5]; more than 10 µg/mL in series [6]. Also, half-maximal cytotoxicity in series [3] (CC50) was put at 25 µg/mL (≈ 69.3 µM).

Take `CCC(CC)OC(=O)c1cc(NC(=S)c2ccccc2N)ccc1Cl` [Compound 67]: the EC50 in series [1] was not below 10 µg/mL; in series [2], 0.75 µg/mL (≈ 1.99 µM); in series [4] it was not below 10 µg/mL; in series [5] it was more than 10 µg/mL; in series [6], 5.5 µg/mL (≈ 14.6 µM). Moreover, in series [3], it took 29 µg/mL (≈ 76.9 µM) to reach half-maximal cytotoxicity (CC50).

For the compound `COc1ccccc1C(=O)Nc1ccc(Cl)c(C(=O)OC2CCCC2)c1` [Compound 68], the EC50 stood at 5 µg/mL (≈ 13.4 µM) in series [1]; 0.45 µg/mL (≈ 1.2 µM) in series [2]; 8.5 µg/mL (≈ 22.7 µM) in series [4]; 8.5 µg/mL (≈ 22.7 µM) in series [5]; 5.5 µg/mL (≈ 14.7 µM) in series [6]. In addition, the CC50 in series [3] is more than 100 µg/mL.

Regarding `COc1ccccc1C(=S)Nc1ccc(Cl)c(C(=O)OC2CCCC2)c1` [Compound 69], the EC50 in series [1] worked out at 0.65 µg/mL (≈ 1.67 µM); in series [2], 0.04 µg/mL (≈ 0.103 µM); in series [4], 0.65 µg/mL (≈ 1.67 µM); in series [5], 3.5 µg/mL (≈ 8.98 µM); in series [6], 0.55 µg/mL (≈ 1.41 µM). Further, in series [3], it took 10 µg/mL (≈ 25.6 µM) to reach half-maximal cytotoxicity (CC50).

With `Cc1ccccc1C(=O)Nc1ccc(Cl)c(C(=O)OC2CCCCC2)c1` [Compound 70], the EC50 in series [1] is 2.5 µg/mL (≈ 6.72 µM); in series [2], 0.19 µg/mL (≈ 0.511 µM); in series [4], 6.5 µg/mL (≈ 17.5 µM); in series [5] it was 2.5 µg/mL (≈ 6.72 µM); in series [6], 5.5 µg/mL (≈ 14.8 µM). This compound came in with a CC50 in series [3] of 5.2 µg/mL (≈ 14 µM).

Consider `Cc1ccccc1C(=S)Nc1ccc(Cl)c(C(=O)OC2CCCCC2)c1` [Compound 71], for which the EC50 was 0.6 µg/mL (≈ 1.55 µM) in series [1]; 0.049 µg/mL (≈ 0.126 µM) in series [2]; 3 µg/mL (≈ 7.73 µM) in series [4]; 1.6 µg/mL (≈ 4.12 µM) in series [5]; 3 µg/mL (≈ 7.73 µM) in series [6]. In series [3], this compound returned a CC50 of 4 µg/mL (≈ 10.3 µM).

Take `CON=Cc1cc(NC(=S)c2ccoc2C)ccc1Cl` [Compound 72]: the EC50 in series [1] came out at 2.3 µg/mL (≈ 7.45 µM); in series [2], 0.03 µg/mL (≈ 0.0972 µM); in series [4], 0.5 µg/mL (≈ 1.62 µM); in series [5], 1.6 µg/mL (≈ 5.18 µM); in series [6] it was 0.085 µg/mL (≈ 0.275 µM). Besides, the CC50 in series [3] amounted to 24 µg/mL (≈ 77.7 µM).

Consider `C=CCOc1cc(NC(=S)c2ccoc2C)ccc1OC` [Compound 73], for which the EC50 came to 2.9 µg/mL (≈ 9.56 µM) in series [1]; 0.017 µg/mL (≈ 0.056 µM) in series [2]; 0.8 µg/mL (≈ 2.64 µM) in series [4]; 0.85 µg/mL (≈ 2.8 µM) in series [5]; 0.09 µg/mL (≈ 0.297 µM) in series [6]. Further, the CC50 in series [3] is more than 100 µg/mL.

On to `C=CCOc1cc(NC(=S)c2ccoc2C)ccc1C#N` [Compound 74], for which the EC50 is 6 µg/mL (≈ 20.1 µM) in series [1]; 0.015 µg/mL (≈ 0.0503 µM) in series [2]; 0.45 µg/mL (≈ 1.51 µM) in series [4]; 3 µg/mL (≈ 10.1 µM) in series [5]; 0.09 µg/mL (≈ 0.302 µM) in series [6]. For the same compound, the CC50 in series [3] was more than 100 µg/mL.

The term EC50 denotes the concentration at which the effect is half-maximal. By CC50 is commonly meant the concentration at which the toxic effect on the cells reaches its halfway point. A higher CC50 goes with lower toxicity to the cells.
